Data on one molecule can be found in patent publication US12691151B2, “Methods and compositions for improving oncolytic virus infection for nonpermissive cancers” (Arizona Board of Regents on behalf of Arizona State …, priority 2019, dated 2026).

“Also recorded” adds a separate entry of the source.

For this assay, the system named is HT29 cells. Format: cell-based, human.

Take `CCC(=C/[C@H](C)C/C=C/C(C)=C/[C@@H](C)C(=O)[C@@H](C)[C@H](O)[C@@H](C)C/C(C)=C/C(=O)O)/C=C/[C@@H]1OC(=O)C=C[C@@H]1C` [Leptomycin B]: the “cell killing ability of MYXV” value was “further enhanced the cell killing ability of MYXV” and the “cell viability (ATP), Leptomycin B pretreatment plus MYXV” value is recorded as “further reduced the viability; also recorded: reduced cell viability”. Besides, the “cell viability (ATP)” value (64 h) was “sensitive to Leptomycin B treatment alone”.
